The values below come from patent US6316498A, “Fluorine-containing amino acid derivatives” (Taisho Pharmaceutical Co., Ltd., priority 1998, dated 2001).

In this assay the test system is Methamphetamine-induced Hyperactivity in Mice. The experiment in a line: Effect on Methamphetamine-induced Hyperactivity in Mice. The class given is in vivo, male ICR-strain mice. The settings on record: for Count (30-minute quantity of movement): 1 mg/kg methamphetamine; for Inhibition rate: vs group given solvent only; for ED50: Mus musculus, po, methamphetamine-induced hyperactivity; for inhibition of methamphetamine-induced hyperactivity (in words): ANOVA P<0.05, LY354740 except 0.01 mg/kg group. As to the method: (Effect on Methamphetamine-induced Hyperactivity in Mice)
11-12 male ICR-strain mice (body weights 23-32 g, Charles River Japan Inc.) were used for a group. The mice were housed in a transparent cylindrical measurement cage made of vinyl chloride (diameter 30 cm, height 30 cm) and were acclimated to their environment for 90 minutes.
Next, each of the compounds listed in Table 2 was orally administered to the mice, and 30 minutes later, 1 mg/kg methamphetamine was administered […]. 15 minutes later, the 30-minute quantity of movement of the mice was measured by a count, using an automatic movement measurement device (SCANET/SV-10, from Toyo Sangyo Co., Ltd.). Each listed compound was used suspended in a solvent consisting of 0.3% Tween 80 physiological saline solution.
The inhibition rate was determined from the count of the group of mice given solvent only and the count of the group of mice given each prescribed dosage of the compounds listed in Table 2, and the ED50 value was calculated. Statistical processing was done by analysis of variance (ANOVA), followed by Dunnet's test.

The term ED50 denotes the dose at which the effect has come halfway, by size or by number of responders. A lower ED50 goes with greater potency. `N[C@]1(C(=O)O)[C@H]2[C@@H](C[C@@H]1F)[C@@H]2C(=O)O` [Comp. 1, (1S,2S,3S,5R,6S)-2-amino-3-fluorobicyclo[3.1.0]hexane-2,6-dicarboxylic acid] displayed an ED50 of 0.05 mg/kg. Also, under “0.01 mg/kg p.o.”, the “Count (30-minute quantity of movement)” value came to 9512 ± 3005 and the Inhibition rate is given as 19.6%. For the setting “0.1 mg/kg p.o.”, the “Count (30-minute quantity of movement)” value turned out to be 4291 ± 1283 and the Inhibition rate was 63.7%. For the same compound, where the note is “1 mg/kg p.o.”, the “Count (30-minute quantity of movement)” value came to 2353 ± 733 and the Inhibition rate is 80.1%. In addition, the “inhibition of methamphetamine-induced hyperactivity (in words)” value (p.o.) is reported as “A similar effect is also seen”. Besides, the “inhibition effect relative to LY354740 for methamphetamine-induced hyperactivity” value (p.o., vs LY354740, from ED50 values) stood at 17.4 times.

In turn, `N[C@@]1(C(=O)O)CC[C@H]2[C@H](C(=O)O)[C@H]21` [LY354740, (+) - (1S, 2S, 5R, 6S)-2-aminobicyclo[3.1.0]hexane-2,6-dicarboxylic acid] came in with an ED50 of 0.87 mg/kg. Also, under “0.01 mg/kg p.o.”, the “Count (30-minute quantity of movement)” value is reported as 12000 ± 3216 and the Inhibition rate is listed as -18.8%. For the same compound, for the setting “0.1 mg/kg p.o.”, the “Count (30-minute quantity of movement)” value was 6975 ± 1489 and the Inhibition rate worked out at 30.9%. Moreover, under “1 mg/kg p.o.”, the “Count (30-minute quantity of movement)” value was found to be 4534 ± 1116 and the Inhibition rate came out at 55.1%. Under “10 mg/kg p.o.”, the “Count (30-minute quantity of movement)” value stood at 3704 ± 1285 and the Inhibition rate is 63.3%. Moreover, under “p.o.”, the “inhibition of methamphetamine-induced hyperactivity (in words)” value was “the methamphetamine-induced hyperactivity was inhibited in a dose-dependent manner”.
